Test results published in patent US6812365B2, “Disulfone reagents and methods of preparing and using same” (The Arizona Disease Control Research Commission, priority 1999, dated 2004).

The compounds below were run against T1, HIV integrase (HIV-IN) (Human immunodeficiency virus type 1 group M subtype B, UniProt P04585) (assay: in vitro HIV integrase inhibition assay (3′-processing and DNA strand transfer, purified recombinant integrase, 21-mer duplex oligonucleotide substrate)). Details: cell-free assay, 50% reduction in enzymatic activity; read-out: IC50 values against HIV-IN.
T1 construct: employs a purified recombinant integrase
Format: biochemical
Source text: Generally, a particular compound's HIV integrase inhibitory potency can be measured by observing the effects of that compound on the integrase enzyme's catalytic activity. HIV integrase has two catalytic functions: (1) 3′-processing, which removes a dinucleotide unit from the 3′-ends of viral DNA; and (2) DNA strand transfer, which […]. These two catalytic steps can be measured in an in vitro assay which employs a purified recombinant integrase and a 21-mer duplex oligonucleotide substrate corresponding to the U5 region of the HIV long terminal repeat (LTR) sequence. This assay permits simultaneous measurement of inhibition constants for both 3′-processing and DNA strand transfer. Inhibitory concentrations (i.e., IC50 values) are determined based on an observed 50% reduction in enzymatic activity in cell-free assays. (See e.g., Zhao H., Neamati N., Mazumder A., Sunder S., Pommier Y., ad Burke T. “Arylamide Inhibitors of HIV-1 Integrase” J. Med. Chem. 1997, 40, 1186-1194).
Compound 76 (an acetylated derivative of Compound 80), Compound 78 (a symmetrical, hydroxylated derivative of Compound 80), and Compound 82 (an acetylated and methylated derivative of Compound 80) have been prepared in accordance with the various aspects of the present invention and have been tested in accordance with the above-described known method of testing HIV-IN inhibition.

**Q.** `O=S(=O)(C=Cc1ccc(O)c(O)c1)CS(=O)(=O)C=Cc1ccc(O)c(O)c1` [Compound 78] was tested. Which IC50 did it give?
**A.** The IC50 was 4 to 6 µM.

**Q.** For `COc1cc(C=CS(=O)(=O)CS(=O)(=O)C=Cc2cc(OC)c(OC(C)=O)c(OC(C)=O)c2)cc(OC(C)=O)c1OC(C)=O` [Compound 82], which IC50 is on record?
**A.** The IC50 was 4 µM.

**Q.** Which IC50 does the source give for `CC(=O)Oc1ccc(C=CS(=O)(=O)CS(=O)(=O)C=Cc2ccc(OC(C)=O)c(OC(C)=O)c2)cc1OC(C)=O` [Compound 76] here?
**A.** The IC50 was 73 to 77 µM.
